Measurements: ChEMBL document CHEMBL4196009, “Novel vitexin-inspired scaffold against leukemia” (Eur J Med Chem, 2018)

Key:
[1] = system: KOPN-8; assay: Antiproliferative activity against human KOPN8 cells after 72 hrs by CelTiter-Glo assay; format: functional, cell-based; details: KOPN-8, 72 h
[2] = system: HepG2; assay: Antiproliferative activity against human HepG2 cells after 72 hrs by CelTiter-Glo assay; format: functional, cell-based; details: HepG2, 72 h
[3] = system: UoC-B1; assay: Antiproliferative activity against human UOCB1 cells after 72 hrs by CelTiter-Glo assay; format: functional, cell-based; details: UoC-B1, 72 h
[4] = system: BJ; assay: Antiproliferative activity against human BJ cells after 72 hrs by CelTiter-Glo assay; format: cell-based
[5] = system: SUP-B15; assay: Antiproliferative activity against human SUP-B15 cells after 72 hrs by CelTiter-Glo assay; format: functional, cell-based; details: SUP-B15, 72 h
[6] = system: SEM cells; assay: Antiproliferative activity against human SEM cells after 72 hrs by CelTiter-Glo assay; format: functional, cell-based

Structure (SMILES) | EC50 [2] [µM] | EC50 [1] [µM] | EC50 [3] [µM] | EC50 [4] [µM] | EC50 [5] [µM] | EC50 [6] [µM]
COC(=O)c1cc(=O)c2cc(NC(=O)NCc3ccccc3)ccc2[nH]1 | > 19.5 | > 19.5 | > 19.5 | > 19.5 | > 19.5 | > 19.5
COc1ccc(-c2cc(=O)c3c(OC)cc(OC)cc3n2S(=O)(=O)c2ccc(F)cc2)cc1 | > 65.5 | > 65.5 | – | > 65.5 | > 65.5 | –
COc1cc(OC)c2c(=O)cc(C(=O)Nc3ccccc3S(C)(=O)=O)[nH]c2c1 | > 39.7 | > 39.7 | – | > 39.7 | > 39.7 | –
COc1ccc(-c2cc(=O)c3c(OC)cc(OC)cc3n2S(=O)(=O)c2ccc([N+](=O)[O-])cc2)cc1 | > 29.3 | 17.3 | – | > 29.3 | 17.1 | –
COc1ccc(-c2cc(=O)c3c(OC)cc(OC)cc3n2S(=O)(=O)c2cc(Cl)cc(Cl)c2O)cc1 | > 37.9 | > 37.9 | – | > 37.9 | > 37.9 | –
COC(=O)c1cc(=O)c2cc(NC(=O)Nc3ccc(C(F)(F)F)cc3)ccc2[nH]1 | > 6.35 | > 6.35 | > 6.35 | > 12.6 | 3.27 | > 6.35
COc1ccc(-c2c(Cl)c(=O)c3c(OC)cc(OC)cc3n2S(=O)(=O)c2ccc(OC)cc2)cc1 | – | 19.1 | – | 90 | 17.9 | –
COC(=O)c1cc(=O)c2c(OC)cc(OC)cc2[nH]1 | > 34.5 | > 34.5 | > 34.5 | > 34.5 | 16.1 | > 34.5
COc1ccc(-c2cc(=O)c3c(OC)cc(OC)cc3n2S(=O)(=O)c2c(F)c(F)c(F)c(F)c2F)cc1 | > 34.5 | > 34.5 | – | > 34.5 | 4.1 | 3.9
COc1cc(OC)c2c(=O)cc(C(=O)Nc3ccc(N4CCN(C)CC4)cc3)[nH]c2c1 | > 19.8 | > 19.8 | > 19.8 | > 19.8 | > 19.8 | > 19.8
COc1ccc(-c2cc(=O)c3c(OC)cc(OC)cc3n2S(=O)(=O)c2ccc(C=O)cc2)cc1 | > 34.5 | > 34.5 | – | > 34.5 | > 34.5 | –
COC(=O)c1cc(=O)c2cc(NC(=O)Nc3ccc(C(F)(F)F)cc3[N+](=O)[O-])ccc2[nH]1 | > 26 | > 26 | > 26 | > 51.7 | > 51.7 | 22.5
COc1ccc(-c2cc(=O)c3c(OC)cc(OC)cc3n2C)cc1 | – | 30 | – | 68 | 28 | 26
COc1ccc(-c2cc(=O)c3c(OC)cc(OC)cc3n2S(=O)(=O)c2cc(F)c(F)c(F)c2)cc1 | > 65.5 | > 65.5 | – | > 65.5 | > 65.5 | –
COc1cc(OC)c2c(=O)cc(C(=O)Nc3ccc(S(=O)(=O)c4ccccc4)cc3)[nH]c2c1 | > 70.7 | > 70.7 | – | > 70.7 | > 70.7 | –
COc1ccc(-c2cc(=O)c3c(OC)cc(OC)cc3n2S(=O)(=O)c2ccc(C)c([N+](=O)[O-])c2)cc1 | > 51.7 | > 51.7 | – | > 51.7 | > 51.7 | –

Structure (SMILES) | EC50 [2] [µM] | EC50 [1] [µM] | EC50 [3] [µM] | EC50 [4] [µM] | EC50 [5] [µM] | EC50 [6] [µM]
COC(=O)c1cc(=O)c2c(OC)cc(OC)cc2n1C | > 19 | > 19 | 0.773 | > 37.9 | > 37.9 | > 19
COc1ccc(-c2cc(=O)c3c(OC)cc(OC)cc3n2S(=O)(=O)c2ccc(C#N)cc2)cc1 | > 17.2 | > 17.2 | – | > 17.2 | 7.9 | 1.3
COc1cc(OC)c2c(=O)cc(C(=O)Nc3cccc(-c4nccs4)c3)[nH]c2c1 | > 54 | > 54 | > 54 | > 54 | > 54 | > 54
COc1cc(OC)c2c(=O)cc(C(=O)Nc3cc(C(F)(F)F)ccc3Oc3ccccc3OC)[nH]c2c1 | 10.7 | > 53.4 | – | > 53.4 | > 53.4 | 10.8
COC(=O)c1cc(=O)c2cc(NC(=O)Nc3cc(F)cc(C(F)(F)F)c3)ccc2[nH]1 | > 20.2 | > 20.2 | > 20.2 | > 40.2 | > 40.2 | > 20.2
Nc1ccc2nc(C(=O)O)cc(O)c2c1 | – | – | – | 371 | 46 | 29
COc1ccc(-c2cc(=O)c3c(OC)cc(OC)cc3n2S(=O)(=O)c2ccc(OC)cc2)cc1 | > 82.8 | > 82.8 | – | > 82.8 | > 82.8 | –
COC(=O)c1cc(=O)c2cc(NC(=O)Nc3ccc4c(c3)CCN4C)ccc2[nH]1 | > 86.2 | > 86.2 | > 86.2 | > 86.2 | > 86.2 | > 86.2
COC(=O)c1cc(=O)c2cc(NC(=O)Nc3cccc(C(C)=O)c3)ccc2[nH]1 | > 8.08 | > 8.08 | > 8.08 | > 16.1 | 11.4 | > 8.08
COc1ccc(-c2cc(=O)c3c(OC)cc(OC)cc3n2S(=O)(=O)c2ccc(Cl)cc2)cc1 | > 34.5 | > 34.5 | – | > 34.5 | > 34.5 | –
COc1cc(OC)c2c(=O)cc(C(=O)Nc3ccc(C4CCCCC4)cc3)[nH]c2c1 | > 43.1 | 18.4 | – | 36.2 | > 43.1 | –
COc1ccc(-c2cc(=O)c3c(OC)cc(OC)cc3n2S(=O)(=O)c2cccc(Br)c2)cc1 | > 58.6 | > 58.6 | – | > 58.6 | > 58.6 | –
C=CCNC(=O)n1c(-c2ccc(OC)cc2)cc(=O)c2c(OC)cc(OC)cc21 | > 20 | 12 | – | 74 | 16 | 12
COc1ccc(-c2cc(=O)c3c(OC)cc(OC)cc3n2S(=O)(=O)c2c(C(C)C)cc(C(C)C)cc2C(C)C)cc1 | > 341 | > 341 | – | > 341 | 43.3 | –
COc1ccc(-c2[nH]c3cc(OC)cc(OC)c3c(=O)c2I)cc1 | > 86.2 | 49.4 | – | > 86.2 | > 86.2 | –
COc1ccc(-c2cc(=O)c3c(OC)cc(OC)cc3n2S(=O)(=O)c2ccc(Br)s2)cc1 | > 48.3 | > 48.3 | – | > 48.3 | > 48.3 | –

Second part, led by results:

EC50 [2] [µM] | Structure (SMILES) | EC50 [1] [µM] | EC50 [3] [µM] | EC50 [4] [µM] | EC50 [5] [µM] | EC50 [6] [µM]
> 43.3 | C=CCNC(=O)Nc1ccc2c(c1)c(=O)cc(C(=O)OC)n2C(=O)NCC=C | > 43.3 | > 43.3 | 86.2 | 86.2 | > 43.3
> 9.81 | COC(=O)c1cc(=O)c2cc(NC(=O)NCCc3cccs3)ccc2[nH]1 | > 9.81 | > 9.81 | > 19.5 | > 19.5 | > 9.81
> 34.5 | COc1ccc(-c2cc(=O)c3c(OC)cc(OC)cc3n2S(=O)(=O)Cc2ccccc2)cc1 | > 34.5 | – | > 34.5 | > 34.5 | –
> 13.9 | CCOC(=O)[C@H](Cc1ccccc1)NC(=O)Nc1ccc2[nH]c(C(=O)OC)cc(=O)c2c1 | > 13.9 | > 13.9 | > 27.6 | 16.5 | > 13.9
> 6.35 | COC(=O)c1cc(=O)c2cc(NC(=O)Nc3ccc(F)c(Cl)c3)ccc2[nH]1 | > 6.35 | > 6.35 | > 12.6 | > 12.6 | > 6.35
60 | O=c1cc(-c2ccccc2)oc2cc(O)c(O)c(O)c12 [BAICALEIN] | 16 | – | > 86.2 | 103 | –
> 58.6 | COc1cc(OC)c2c(=O)cc(C(=O)Nc3cccc(N4CCCC4)c3)[nH]c2c1 | > 58.6 | > 58.6 | > 58.6 | > 58.6 | > 58.6
> 32.2 | COc1cc(OC)c2c(=O)cc(C(=O)Nc3ccc(Oc4cccnc4)cc3)[nH]c2c1 | > 32.2 | 27.7 | > 32.2 | > 32.2 | > 32.2
5.3 | COc1ccc(Oc2ccc(C(F)(F)F)cc2NC(=O)c2cc(=O)c3c(OC)cc(OC)cc3[nH]2)cc1 | > 67.2 | > 67.2 | > 67.2 | > 67.2 | > 67.2
> 27.7 | COc1cc(OC)c2c(=O)cc(-c3ccc4c(c3)OCO4)[nH]c2c1 | > 27.7 | > 27.7 | > 55.2 | 18.8 | > 27.7
> 13.3 | COC(=O)c1cc(=O)c2cc(NC(=O)Nc3ccc4c(c3)OCCO4)ccc2[nH]1 | > 13.3 | > 13.3 | > 26.4 | > 26.4 | > 13.3
> 17.3 | COc1ccc(-c2cc(=O)c3c(OC)cc(OC)cc3n2Cc2ccccc2)cc1 | > 17.3 | > 17.3 | > 34.5 | > 34.5 | > 17.3
16.3 | COc1ccc(-c2cc(=O)c3c(OC)cc(OC)cc3n2S(=O)(=O)c2ccc(Br)cc2)cc1 | > 86.2 | – | > 86.2 | 63.8 | –
> 36.8 | COc1cc(OC)c2c(=O)cc(C(=O)Nc3ccc(N4CCOCC4)cc3)[nH]c2c1 | > 36.8 | – | > 36.8 | > 36.8 | –
> 44.8 | COc1ccc(-c2cc(=O)c3c(OC)cc(OC)cc3n2S(=O)(=O)c2ccc(C)cc2)cc1 | > 44.8 | – | > 44.8 | > 44.8 | –
> 39.7 | COc1ccc(-c2cc(=O)c3c(OC)cc(OC)cc3n2S(=O)(=O)c2cccc([N+](=O)[O-])c2)cc1 | > 39.7 | – | > 39.7 | > 39.7 | –
